What follows are compounds tested on Mus musculus (assay: Dose required to produce a 50% elevation in seizure threshold after oral administration). Conditions: not given.
Type: functional
Compound NC(=O)N1c2ccccc2C=Cc2ccccc21 [CARBAMAZEPINE] has an ED50 of 12.7 mg/kg.
With CCC1(c2ccccc2)C(=O)NC(=O)NC1=O [PHENOBARBITAL] the ED50 was 10.6 mg/kg.

These compounds were tested on Mus musculus (assay: Increase in threshold voltage (applied via a subcutaneous and a buccal electrode) for inducing tonic hind limb extension seizures in 50% (CV50) in mouse MEST model at a dose of 10 mg/kg orally). Conditions: route oral.
Type: functional, Hindlimb
CC1(C)Oc2ccc(C#N)cc2[C@H](NC(=O)c2ccc(F)cc2)[C@H]1O was tested, and the Change was 41%.
CC1(C)Oc2ccc(C#N)cc2[C@@H](NC(=O)c2ccc(F)cc2)[C@@H]1O was tested, and the Change was 17%.
In the case of CC1(C)Oc2ccc(C#N)cc2C(NC(=O)c2ccccc2)[C@@H]1O (stereo partly specified), the Change was 29%.
CC1(C)Oc2ccc(C#N)cc2[C@H](NC(=O)c2cccc(F)c2)[C@H]1O showed a Change of 50%.
With CC1(C)Oc2ccc(C#N)cc2[C@@H](NC(=O)c2cccc(F)c2)[C@@H]1O the Change was 12%.
For CC(C)(C)c1ccc2c(c1)C(N1CCCC1=O)[C@H](O)C(C)(C)O2 (stereo partly specified), the Change was 12%.
With CC1(C)C=C(N2CCCC2=O)c2cc(C#N)ccc2O1 the Change was 4%.
In the case of CC1(C)Oc2ccc(C#N)cc2C(NC(=O)c2ccc(F)cc2)[C@@H]1O (stereo partly specified), the Change was 49%.

Each compound was assayed on Mus musculus (assay: Change in threshold voltage (applied via a subcutaneous and a buccal electrode) for inducing tonic hind limb extension seizures in 50% (CV50) in mouse MEST model at a dose of 10 mg/kg intraperitoneally 30 min pretest). Conditions: not given.
Type: functional, Hindlimb
Work on CC1(C)Oc2ccc(C#N)cc2C(N2CCCC2=O)C1O (racemic) [CROMAKALIM] yielded a Change of -16%.

What follows are compounds tested on Mus musculus (assay: Change in threshold voltage (applied via a subcutaneous and a buccal electrode) for inducing tonic hind limb extension seizures in 50% (CV50) in mouse MEST model at a dose of 30 mg/kg orally). Conditions: route oral.
Type: functional, Hindlimb
CC1(C)Oc2ccc(-c3ccccc3)cc2C(NC(=O)c2ccc(F)cc2)[C@@H]1O (stereo partly specified) was tested, and the Change was 20%.
Work on CN(C(=O)c1ccc(F)cc1)C1c2cc(C#N)ccc2OC(C)(C)[C@H]1O (stereo partly specified) yielded a Change of 26%.
For CC1(C)Oc2ccc(C#N)cc2C(NC(=O)c2ccc(C#N)cc2)[C@@H]1O (stereo partly specified), the Change was 7%.
Work on CC1(C)Oc2ccccc2C(NC(=O)c2ccc(F)cc2)[C@@H]1O (stereo partly specified) yielded a Change of 13%.
CC(C)c1ccc2c(c1)C(NC(=O)c1ccc(F)cc1)[C@H](O)C(C)(C)O2 (stereo partly specified) showed a Change of 19%.
COc1ccc2c(c1)C(NC(=O)c1ccc(F)cc1)[C@H](O)C(C)(C)O2 (stereo partly specified) was tested, and the Change was 28%.
CC1(C)Oc2ccc(C#N)cc2C(NC(=O)c2ccc(O)cc2)[C@@H]1O (stereo partly specified) gave a Change of -2%.

What follows are compounds tested on Mus musculus (assay: Change in threshold voltage (applied via a subcutaneous and a buccal electrode) for inducing tonic hind limb extension seizures in 50% (CV50) in mouse MEST model at a dose of 10 mg/kg orally). Conditions: route oral.
Type: functional, Hindlimb
In the case of CC1(C)Oc2ccc(C(F)(F)F)cc2C(NC(=O)c2ccc(F)cc2)[C@@H]1O (stereo partly specified), the Change was 33%.
CC1(C)Oc2ccncc2C(NC(=O)c2ccc(F)cc2)[C@@H]1O (stereo partly specified) showed a Change of 5%.
CC1(C)Oc2ccc(C#N)cc2C(N2CCCC2=O)C1O (racemic) [CROMAKALIM] gave a Change of 4%.

From ChEMBL document CHEMBL1128157, “Stereochemical differentiation of anticonvulsant and antihypertensive effects in 4-(fluorobenzoylamino)-benzopyrans” (1995)
